Results taken from patent US20100204248A1, “MEDICAMENTS AND METHODS FOR INHIBITION OF NON-OCULAR SCARRING” (Renovo Limited, priority 2007, published 2010).

Key:
[1] = tested on: full thickness cutaneous incisional wounds; assay: Scarring model: rat incisional wounds, macroscopic and microscopic VAS scar assessment at day 70; assay type: in vivo, Sprague Dawley rats; details: for macroscopic appearance of scars (macroscopic VAS): before wounding and 1 day post-wounding; for macroscopic appearance of scars (macroscopic VAS) / microscopic appearance of scars (microscopic VAS): vs naïve control or diluent control
Procedure: At day 0, male Sprague Dawley rats (200-250 g) were anaesthetised, shaved and wound sites were marked according to the Renovo rat incisional wounding template (2 wound model, 2×1 cm wounds, 5 cm from the base of the skull and 1 cm from the midline in each rat). One hundred microlitres of 6-mercaptopurine at 1 ng, 10 ng or 1000 ng in phosphate buffered saline (PBS, pH 7.2; GIBCO BRL, Cat. #20012-019) containing 5% ethanol was injected intradermally at the wound sites. […] Separate groups of rats used as naïve controls and diluent controls. Naïve control animals were wounded without treatment, whilst diluent control animals were injected with 100 μl of the PBS/ethanol mixture prior to wounding. All treated or diluent control wounds were re-injected again 1 day post-wounding with the appropriate treatment via injection of 50 μl to each of the two margins of the 1 cm wound. Wounds from the treated, naïve control and diluent control animals were all harvested at day 70 post-wounding. The wounds were photographed after wounding, prior to re-injection on day 1 and on day of harvest. The scars were assessed using standard macroscopic scar assessment using a visual analogue scale (VAS) consisting of a 0-10 cm line representing a scale, from left to right, of 0 (corresponding to normal skin) to 10 (indicative of a bad scar). For microscopic assessment the scars were excised from the experimental rats (incorporating a small amount of surrounding normal tissue) and fixed in 10% (v/v) buffered formal saline. The fixed tissue was then processed for wax histology, stained using Masson's trichrome, and scarring assessed using a microscopic visual analogue scale (VAS).

incisional wounds = assay: Incisional wound healing model, wounds harvested three days post-wounding; assay type: in vivo, Sprague Dawley rats
Procedure: At day 0, male Sprague Dawley rats (200-250 g) were anaesthetised, shaved and wound sites were marked according to the Renovo rat incisional wounding template (2 wound model, 2×1 cm wounds, 5 cm from the base of the skull and 1 cm from the midline in each rat). One hundred microlitres of 6-mercaptopurine at 1 ng, 10 ng or 1000 ng in phosphate buffered saline (PBS, pH 7.2; GIBCO BRL, Cat. #20012-019) containing 5% ethanol was injected intradermally at the wound sites. The intradermal injections caused the formation of a raised bleb, which was then immediately incised to form 1 cm long experimental wounds. Separate groups of rats used as naïve controls and diluent controls. Naïve control animals were wounded without treatment, whilst diluent control animals were injected with 100 μl of the PBS/ethanol mixture prior to wounding. All treated or diluent control wounds were re-injected again 1 day post-wounding with the appropriate treatment via injection of 50 μl to each of the two margins of the 1 cm wound. Wounds from the treated, naïve control and diluent control animals were all harvested at day 70 post-wounding.
Treated and control incisional wounds were created as described above, to allow assessment of the effects of NR4A agonists, such as 6-mercaptopurines, on wound healing. Wounds from the treated, naïve control and diluent control animals were all harvested at three days post-wounding.
The wounds were photographed after wounding, prior to re-injection on day one and on the day of harvest. Day three incisional or excisional wounds were excised from the experimental rats (incorporating a small amount of surrounding normal tissue). […] The fixed tissue was then processed for wax histology, stained using Masson's trichrome, and wound width assessed using image analysis software. Width of incisional wounds was measured at a point mid-way through the depth of the wound, whereas width of excisional wounds was measured at the top of the wounds.

excisional wounds = assay: Excisional wound healing model, 5 mm punch biopsy wounds harvested day 3; assay type: in vivo, Sprague Dawley rats
Procedure: One hundred microlitres of 6-mercaptopurine at 1 ng, 10 ng or 1000 ng in phosphate buffered saline (PBS, pH 7.2; GIBCO BRL, Cat. #20012-019) containing 5% ethanol was injected intradermally at the wound sites. […] Separate groups of rats used as naïve controls and diluent controls. Naïve control animals were wounded without treatment, whilst diluent control animals were injected with 100 μl of the PBS/ethanol mixture prior to wounding. […] For microscopic assessment the scars were excised from the experimental rats (incorporating a small amount of surrounding normal tissue) and fixed in 10% (v/v) buffered formal saline. […]

NR4A1 = NR4A1 (Homo sapiens, UniProt P22736); details: cited from earlier work
Chain of NR4A1 (P22736 whole entry): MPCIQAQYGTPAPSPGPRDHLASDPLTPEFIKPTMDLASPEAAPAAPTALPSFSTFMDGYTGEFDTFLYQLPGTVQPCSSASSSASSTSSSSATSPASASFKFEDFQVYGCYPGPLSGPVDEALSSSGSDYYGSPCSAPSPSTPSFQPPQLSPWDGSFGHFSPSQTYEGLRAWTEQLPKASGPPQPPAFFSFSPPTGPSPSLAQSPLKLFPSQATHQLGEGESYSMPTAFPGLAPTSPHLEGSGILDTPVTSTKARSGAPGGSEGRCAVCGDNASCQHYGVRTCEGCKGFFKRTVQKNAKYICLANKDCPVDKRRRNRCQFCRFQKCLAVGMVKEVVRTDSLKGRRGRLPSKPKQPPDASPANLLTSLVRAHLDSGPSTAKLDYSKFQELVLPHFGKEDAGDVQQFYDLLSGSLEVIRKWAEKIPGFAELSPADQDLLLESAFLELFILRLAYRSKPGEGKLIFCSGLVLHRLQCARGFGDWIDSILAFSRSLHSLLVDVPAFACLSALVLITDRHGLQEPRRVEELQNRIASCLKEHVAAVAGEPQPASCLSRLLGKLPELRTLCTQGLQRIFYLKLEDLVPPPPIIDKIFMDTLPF

NR4A2 = NR4A2 (Homo sapiens, UniProt P43354); details: cited from earlier work
Chain of NR4A2 (P43354 whole entry): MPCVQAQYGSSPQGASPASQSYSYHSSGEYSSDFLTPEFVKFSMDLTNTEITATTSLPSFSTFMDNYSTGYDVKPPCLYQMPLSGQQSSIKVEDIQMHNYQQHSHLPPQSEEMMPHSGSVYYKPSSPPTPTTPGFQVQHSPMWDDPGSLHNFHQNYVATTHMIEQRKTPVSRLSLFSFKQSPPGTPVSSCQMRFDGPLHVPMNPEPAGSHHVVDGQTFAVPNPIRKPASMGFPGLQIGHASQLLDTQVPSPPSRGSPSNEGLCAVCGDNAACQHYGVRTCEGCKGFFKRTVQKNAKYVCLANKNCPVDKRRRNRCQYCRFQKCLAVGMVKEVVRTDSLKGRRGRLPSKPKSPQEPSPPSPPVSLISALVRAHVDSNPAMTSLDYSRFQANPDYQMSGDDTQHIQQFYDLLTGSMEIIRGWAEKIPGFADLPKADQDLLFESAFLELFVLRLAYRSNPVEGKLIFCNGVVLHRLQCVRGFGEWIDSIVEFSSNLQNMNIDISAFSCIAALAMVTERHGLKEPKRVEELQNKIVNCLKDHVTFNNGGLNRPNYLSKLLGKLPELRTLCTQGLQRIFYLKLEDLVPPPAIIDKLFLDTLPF

NR4A3 = NR4A3 (Homo sapiens, UniProt Q92570); details: cited from earlier work
Chain of NR4A3 (Q92570 whole entry): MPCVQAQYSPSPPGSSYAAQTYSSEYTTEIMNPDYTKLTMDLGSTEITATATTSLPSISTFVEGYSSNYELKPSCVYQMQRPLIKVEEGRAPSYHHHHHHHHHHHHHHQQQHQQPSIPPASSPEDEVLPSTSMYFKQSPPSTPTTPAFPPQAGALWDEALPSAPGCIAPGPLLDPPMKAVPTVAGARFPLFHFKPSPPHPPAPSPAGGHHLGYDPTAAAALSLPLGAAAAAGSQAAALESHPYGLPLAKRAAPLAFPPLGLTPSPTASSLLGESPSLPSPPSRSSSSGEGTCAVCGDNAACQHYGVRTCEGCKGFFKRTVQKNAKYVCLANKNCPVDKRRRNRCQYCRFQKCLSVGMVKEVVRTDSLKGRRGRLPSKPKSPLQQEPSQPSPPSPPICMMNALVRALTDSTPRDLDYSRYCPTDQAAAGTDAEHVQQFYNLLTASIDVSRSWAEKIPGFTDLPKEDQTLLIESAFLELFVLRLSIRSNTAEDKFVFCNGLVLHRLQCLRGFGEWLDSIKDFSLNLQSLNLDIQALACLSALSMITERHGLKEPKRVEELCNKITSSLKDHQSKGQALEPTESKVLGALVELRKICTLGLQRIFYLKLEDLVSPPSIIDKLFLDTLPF

[2] = day 3, measured mid-way through wound depth, 1, 10 or 1000 ng/100 μl intradermal
[3] = day 3, measured at top of wound, 1, 10 or 1000 ng/100 μl intradermal

Compound: Sc1ncnc2nc[nH]c12 [6-mercaptopurine]
- macroscopic appearance of scars (macroscopic VAS) ([1]; 1 ng/100 μl intradermal): improved
- microscopic appearance of scars (microscopic VAS) ([1]; 1 ng/100 μl intradermal): significantly improved
- inhibition of scarring, microscopic appearance ([1]; 1 ng/100 μl, compared to both diluent and control wounds (p<0.01)): significantly inhibited scarring
- inhibition of scarring, macroscopic appearance of treated wounds ([1]; 1 ng/100 μl, p<0.05 as compared to diluent controls): statistically significant inhibition of scarring
- macroscopic appearance of scars (macroscopic VAS) ([1]; 10 ng/100 μl intradermal): improved
- microscopic appearance of scars (microscopic VAS) ([1]; 10 ng/100 μl intradermal): significantly improved
- inhibition of scarring, microscopic appearance ([1]; 10 ng/100 μl, compared to diluent and naïve controls (p<0.05)): significantly inhibited scarring
- macroscopic appearance of scars (macroscopic VAS) ([1]; 1000 ng/100 μl intradermal): improved
- microscopic appearance of scars (microscopic VAS) ([1]; 1000 ng/100 μl intradermal): significantly improved
- inhibition of scarring, microscopic appearance ([1]; 1000 ng/100 μl, compared to diluent controls (p<0.05)): significantly inhibited scarring
- inhibition of scarring, macroscopic appearance of treated wounds ([1]; 1000 ng/100 μl, p<0.05 as compared to both diluent and naïve controls): statistically significant inhibition of scarring
- width of incisional wounds compared to controls (incisional wounds; [2]): not increased
- width of incisional wounds compared to naïve controls (incisional wounds; [2]): consistently lower
- re-epithelialisation of incisional wounds (incisional wounds; three days after wounding, comparable with control wounds): fully re-epithelialised
- width of excisional wounds lower than naïve controls, significance (excisional wounds; 1 ng/100 μl, day 3, p<0.01 versus naïve control only (FIG. 5)): significantly so
- width of excisional wounds compared to controls (excisional wounds; [3]): not increased
- width of excisional wounds compared to naïve controls (excisional wounds; [3]): consistently lower
- percentage re-epithelialisation of excisional wounds (excisional wounds; three days after excision, vs diluent control and naïve control): trend towards increased re-epithelialisation
- agonist activity (NR4A1): agonist
- agonist activity (NR4A2): agonist
- agonist activity (NR4A3): agonist
